Assay results reported in ChEMBL document CHEMBL1149741, “Further bioactive acetylenic compounds from the Caribbean sponge Cribrochalina vasculum” (J Nat Prod, 1992).
Converted amounts (≈) assume the structure as drawn. The source made the active and inactive calls. The calls are words filed in the database; no cut-off is given here.

Columns and labels:
[1] = (§1) Toxicity against Artemia salina; type: organism-based; conditions: in vivo
Lymphocyte = assay: Immunosuppressive activity against lymphocyte by mixed lymphocyte reaction assay; type: functional, cell-based
P388 = assay: Antitumor activity against mouse P388 cells; type: functional, cell-based
Artemia salina = assay: as §1; type: organism-based; conditions: in vivo

## C#C/C=C/CCCCCCCCCC/C=C\CCCCCC
[1]
  LC50: 1.1 µg/mL (≈ 3.64 µM)

## C#C[C@H](O)CCCCCCCCCCCCCCCC(C)C
[1]
  LC50: 1 µg/mL (≈ 3.24 µM)

## C#C[C@H](O)/C=C/CCCCCCCCC(C)CCCCCCCC (some centres undefined)
[1]
  LC50: 0.03 µg/mL (≈ 0.0897 µM)

## C#C[C@H](O)CCCCCCCCCCCCC(C)CCCC (some centres undefined)
[1]
  LC50: 1.2 µg/mL (≈ 3.89 µM)

## C#CC(O)/C=C/CCCCCCCCC/C=C/CCCCC(C)C (centres undefined)
Lymphocyte
  Activity: Active
P388
  Activity: Active
Artemia salina
  Activity: Toxic

## C#C[C@H](O)/C=C/CCCCCCCCCCCCCC(C)C
Lymphocyte
  Activity: Active
P388
  Activity: Active
[1]
  LC50: 0.8 µg/mL (≈ 2.61 µM)

## C#CC(O)/C=C/CCCCCCCCCCCCCCC (centres undefined)
Lymphocyte
  Activity: Active
P388
  Activity: Active
Artemia salina
  Activity: Toxic

## C#C[C@H](O)/C=C/CCCCCCCCCCC(C)CCCC (some centres undefined)
Lymphocyte
  Activity: Active
P388
  Activity: Active
[1]
  LC50: 0.8 µg/mL (≈ 2.61 µM)

## C#C[C@H](O)/C=C/CCCCCCCCC/C=C/CCCCCC
Lymphocyte
  Activity: Active
P388
  Activity: Active
[1]
  LC50: 0.4 µg/mL (≈ 1.26 µM)
